Test system: aRPE cells
Test: intracellular ROS, GSH, MDA, antioxidant enzyme activity and survival in aRPE cells (basal, H2O2, BSO, Tempol)
Format: cell-based, human
Details: aRPE-PU cells, pretreatment 0.5 mmol/L, then 100 μM H2O2, p<0.05 vs H2O2
Protocol: The results were expressed as nmol/g protein. Total SOD activity was determined by Superoxide Dismutase Activity Colorimetric Assay Kit (Abcam) according to manufacturer's protocol. SOD activity was expressed as units/g protein. GSH-Px and CAT activities were measured by glutathione peroxidase cellular activity assay kit and catalase assay kit, both are purchased from Sigma.
Cultured aRPE cells were washed with PBS twice and treated with 100 μM H2O2. After 8 hours, the medium was removed, and the cells were collected for the subsequent experiments. […] In brief, cells were incubated with […] DCFH-DA in culture medium for 30 min at 37° C., followed by washing with PBS and flow cytometric analysis. The intracellular GSH content was detected by colorimetric assay using the GSH-400 kit (OXIS International, Portland, Oreg., USA). In the GSH-400 assay, 4-chloro-1-methyl-7-trifluoromethyl-quinolinium methylsulfate was added to react with all mercaptans in the sample, leading to the formation of substitution products, […]. Then, 30% sodium hydroxide was used to mediate a β-elimination reaction and specifically transform GSH-thioester into a chromophoricthione with a maximal absorbance wavelength at 400 nm that was detected by a spectrophotometer.

CC1(C)CC(O)CC(C)(C)N1[O] [Tempol, 4-hydroxy-2,2,6,6-tetramethylpiperidinyloxy]
H2O2-induced ROS production: decreased
H2O2-induced cell death: decreased

Reference: patent US8962587B2, “Gene delivery of OCT4 and SirT1 and pharmaceutical compositions thereof” (Taipei Veterans General Hospital, priority 2011, dated 2015)
